≈ marks a conversion by molar mass, not a printed value. Where two headings read alike, the source gives them in different places.
Legend:
[1] = tested on: P. falciparum stage IV–V gametocytes (3D7HT-GFP strain); assay: microbe, parasite or virus in culture; format: cell-based, Plasmodium falciparum
Description: Once purified, gametocytes were counted using a Neubauer chamber. Gametocytes (5×10^4 gametocytes per well) were transferred to a 96-well plate in a final volume of 100 µL, and dilutions of each drug were added (final DMSO concentration 0.5%). Plates were incubated (at 37°C in a 5% CO2 humidified incubator) for 48 h. The ATP level of each well was determined using the BacTiter-Glo™ reagent (Promega) according to manufacturer's recommendations. The BacTiter-Glo™ assay generates a “glow-type” luminescent signal produced by the luciferase reaction, which consists of mono-oxygenation of luciferin catalyzed by luciferase in the presence of Mg2+, ATP, and molecular oxygen.

[2] = tested on: P. falciparum asexual forms (3D7HT-GFP); assay: In vitro antiplasmodial activity on asexual stages (uptake of radiolabeled nucleic acid precursor), 3D7HT-GFP; format: cell-based, Plasmodium falciparum; conditions: read-out: IC50 Activity against asexual forms (3D7HT-GFP)
Description: (§1) IC50 values were measured as previously reported but all of the tests were done with serum-free cultures (using AlbuMAX II)

[3] = Cytotoxicity, resazurin-based reductase assay; format: cell-based, human; conditions: human, HepG2, 48 h exposure, resazurin, mean ± SD, 3–6 independent experiments
Description: (§2) Cells were grown and maintained in EMEM (Sigma-Aldrich) supplemented with 2 mM L-glutamine (Sigma-Aldrich) and 10% fetal calf serum (Perbio). […] For cytotoxicity experiments, cells were seeded onto 96-well clear bottom black plates coated with type I collagen (Biocoat, Becton Dickinson) at a cell density of 10000 cells/well.
(§3) The culture medium was as described above, but supplemented with 5% fetal calf serum. Following the 48 h exposure period, a 0.004% resazurin solution was prepared by adding 60 mL of Dulbecco's PBS to each resazurin tablet (VWR International). The tablet was allowed to dissolve by placing the container in a bath maintained at 37°C, protected from light, for approximately 30 minutes. Medium was removed and 200 µL of fresh culture medium and 50 µL of resazurin solution were added to each well. Plates were incubated for a further 1 ½ hours. Cytotoxicity is indicated by decreased reduction of resazurin to its fluorescent product resorufin. The fluorescence was stabilized at room temperature for 15 minutes protected from light. […] Percentages of inhibition were calculated relative to the control wells.

[4] = tested on: P. falciparum asexual forms (3D7A); assay: In vitro antiplasmodial activity on asexual stages (uptake of radiolabeled nucleic acid precursor), 3D7A; format: cell-based, Plasmodium falciparum; conditions: read-out: IC50 Activity against asexual forms (3D7A)
Description: as §1

[5] = tested on: P. falciparum mature gametocytes; assay: Microscopic enumeration of gametocytes on Giemsa-stained smears; format: cell-based, Plasmodium falciparum; conditions: read-out: IC50 gametocytes Microscopy examination
Description: 100 µl of the culture (day 15, HT 6%) were plated in each well with the appropriate dilution of drug. 48 h after, 10 µl of each well was used to prepare a thin blood film and stain it with Giemsa. The number of gametocytes per 10,000–15,000 RBCs were counted and compared to the control (no drug, 0.5% DMSO).

HepG2 cells = assay: Cytotoxicity, resazurin-based reductase assay; format: cell-based, human
Description: as §2, §3

late gametocytes = tested on: late gametocytes; set-up: method as in PMID 20149239; conditions: flow cytometry assay; cited from earlier work
gametocytes [6] = tested on: gametocytes; set-up: method as in PMID 17242150; conditions: cited from earlier work
gametocytes [7] = conditions: cited from earlier work
gametocytes [8] = tested on: gametocytes; set-up: method as in PMID 21316401; conditions: at 1 µM; cited from earlier work
[9] = Plasmodium falciparum, 48 h, read-out: IC50 Activity against mature gametocytes IV–V, ATP bioluminescence, 48 h, 3D7HT-GFP, mean ± SD, 3–6 independent experiments
[10] = Plasmodium falciparum, mean ± SD, 3–6 independent experiments, serum-free (AlbuMAX II)
[11] = Plasmodium falciparum, 48 h, read-out: IC50 gametocytes ATP method, mature gametocytes, 48 h drug exposure (Table 1)
[12] = Plasmodium falciparum, mature gametocytes, 48 h incubation, Giemsa smear counting

SMILES	IC50 [1, 9]	IC50 ([2]; Plasmodium falciparum)	IC50 at 48 h ([3]; HepG2 cells)	IC50 [4, 10]	further results
CCc1nc(N)nc(N)c1-c1ccc(Cl)cc1 [Pyrimethamine]	> 50000 nM	33700 ± 6720 nM	> 50000 nM	–	effect on mature gametocytes (in words) ([1]; 3D7HT-GFP line resistant to drugs acting on DHFR): did not have any effect
COc1ccc2nc3cc(Cl)ccc3c(Nc3cc(CN4CCCC4)c(O)c(CN4CCCC4)c3)c2n1 [Pyronaridine]	~3250 nM	0.8 ± 0.1 nM	5950 ± 920 nM	4.5 ± 1.5 nM	–
CC[C@H](C)[C@H](NC(=O)[C@H]([C@@H](C)CC)N(C)C(C)=O)C(=O)N[C@H](C(=O)N[C@@H](CC(C)C)C(=O)[C@@]1(C)CO1)[C@@H](C)O [Epoxomicin]	–	–	–	–	IC50 ([1]; ATP bioluminescence, 48 h, 3D7HT-GFP, mean ± SD, 3–6 independent experiments, read-out: IC50 Activity against mature gametocytes IV–V): 0.42 ± 0.11 nM; IC50 ([1]; mature gametocytes, 48 h drug exposure (Table 1), read-out: IC50 gametocytes ATP method): 0.42 nM; IC50 ([5]; mature gametocytes, 48 h incubation, Giemsa smear counting): 5.2 nM; IC50 [4]: 8 ± 1 nM; IC50 ([2]; mean ± SD, 3–6 independent experiments, serum-free (AlbuMAX II)): 9.8 ± 1.7 nM; IC50 (HepG2 cells; HepG2, 48 h exposure, resazurin, mean ± SD, 3–6 independent experiments): 3 ± 0.5 nM
C[C@@H]1CC[C@H]2[C@@H](C)C(=O)O[C@@H]3O[C@@]4(C)CC[C@@H]1[C@]32OO4 [artemisinin]	–	–	–	–	IC50 (late gametocytes): 1000 nM
C[C@H]1[C@H](OC(=O)CCC(=O)O)O[C@@H]2O[C@@]3(C)CC[C@H]4[C@H](C)CC[C@@H]1[C@@]24OO3 [Artesunate]	10800 ± 3700 nM	54 ± 30 nM	> 50000 nM	37 ± 25 nM	IC50 [1, 11]: 10800 nM; IC50 [5, 12]: 2260 nM; IC50 (gametocytes [6]): 108 nM; IC50 on gametocytes (gametocytes [7]): 0.1 ng/mL (≈ 0.26 nM)
O=C1C(O)=C([C@H]2CC[C@H](c3ccc(Cl)cc3)CC2)C(=O)c2ccccc21 [Atovaquone]	16100 ± 2120 nM	1.8 ± 0.2 nM	> 40000 nM	0.7 ± 0.4 nM	cytotoxic effects (in words) (HepG2 cells; at the maximum solubility in culture media): No cytotoxic effects were detected
CCN(CC)Cc1ccc(Nc2ccnc3cc(Cl)ccc23)cc1O [Isoquine]	28500 ± 2120 nM	4.4 ± 3.2 nM	17100 ± 6300 nM	9 ± 1.6 nM	–
CCCCN(CCCC)CC(O)c1cc(Cl)cc2c1-c1ccc(Cl)cc1/C2=C/c1ccc(Cl)cc1 (stereo not drawn) [Lumefantrine]	> 50000 nM	1.65 ± 0.07 nM	> 50000 nM	3.2 ± 0.14 nM	–
C[C@@H]1C[C@@H]([C@H](O)CC2CC(=O)NC(=O)C2)C(=O)[C@@H](C)C1 [Cycloheximide]	–	194 ± 7.7 nM	–	–	IC50 ([1]; Plasmodium falciparum, 48 h, read-out: IC50 Activity against mature gametocytes IV–V): 6230 ± 2460 nM; IC50 ([4]; Plasmodium falciparum): 198 ± 1.7 nM; IC50 at 48 h [3]: 2950 ± 350 nM
COc1cc(NC(C)CCCN)c2ncccc2c1 (stereo not drawn) [Primaquine]	20900 ± 4650 nM	> 10000 nM	–	> 10000 nM	IC50 [1, 11]: 20900 nM; IC50 [5, 12]: 87900 nM; IC50 at 48 h [3]: > 50000 nM
C=C[C@H]1C[N@@]2CC[C@H]1C[C@H]2[C@H](O)c1ccnc2ccc(OC)cc12 [Quinine]	–	106 ± 40 nM	> 50000 nM	66 ± 18 nM	–
OC(c1cc(C(F)(F)F)nc2c(C(F)(F)F)cccc12)C1CCCCN1 (stereo not drawn) [Mefloquine]	4900 nM	28 ± 1.4 nM	11000 ± 260 nM	26 ± 17 nM	IC50 ([1]; read-out: IC50 Activity against mature gametocytes IV–V, ATP bioluminescence, 48 h, 3D7HT-GFP, mean ± SD, 3–6 independent experiments): 4700 ± 2100 nM; selectivity ratio (IC50 in HepG2 cells / IC50 in P. falciparum gametocytes) (HepG2 cells; HepG2 versus mature gametocytes): 2.34
CN(C)c1ccc2nc3ccc(=[N+](C)C)cc-3sc2c1 [Methylene blue]	490 ± 160 nM	10 ± 1.8 nM	6520 ± 1310 nM	11 ± 8 nM	IC50 [1, 11]: 490 nM; IC50 [5, 12]: 760 nM
CCN(CC)CCCC(C)Nc1ccnc2cc(Cl)ccc12 (stereo not drawn) [Chloroquine]	23500 ± 2660 nM	7 ± 2 nM	–	–	IC50 [1, 11]: 23500 nM; IC50 ([5]; Plasmodium falciparum, 48 h): 28400 nM; IC50 ([4]; Plasmodium falciparum): 6 ± 0.2 nM
C[C@H]1[C@@H](O)O[C@@H]2O[C@@]3(C)CC[C@H]4[C@H](C)CC[C@@H]1[C@@]24OO3 [Dihydroartemisinin]	3560 ± 950 nM	13 ± 3 nM	> 50000 nM	2.8 ± 0.7 nM	IC50 [1, 11]: 3560 nM; IC50 [5, 12]: 2470 nM; inhibition of gametocytes (gametocytes [8]): 70.4%
CCCCN(CCCC)CCC(O)c1cc2c(Cl)cc(Cl)cc2c2cc(C(F)(F)F)ccc12 (stereo not drawn) [Halofantrine]	6700 ± 420 nM	1.2 ± 0.5 nM	> 50000 nM	1.1 ± 0.5 nM	–
CC[C@H]1OC(=O)[C@H](C)[C@@H](O[C@H]2C[C@@](C)(OC)[C@@H](O)[C@H](C)O2)[C@H](C)[C@@H](O[C@@H]2O[C@H](C)C[C@H](N(C)C)[C@H]2O)[C@](C)(O)C[C@@H](C)CN(C)[C@H](C)[C@@H](O)[C@]1(C)O [Azythromycin]	28400 ± 640 nM	> 10000 nM	> 50000 nM	–	IC50 ([4]; Plasmodium falciparum): > 10000 nM
